# Counter-ions that a name gives are not always drawn.
# Molecular target: T1, Syk tyrosine kinase (Homo sapiens, UniProt P43405)
# T1 construct: purchased Carna Biosciences, Inc
# Assay: Test for Syk tyrosine kinase inhibitory activity (ELISA)
# Type: biochemical
# Settings: Syk tyrosine kinase (Carna Biosciences), 25 μM ATP in substrate solution, 30° C. 1 hour, n=2; read-out: Evaluation (IC50, concentration inhibiting the tyrosine kinase activity at 50%)
# Outline: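 Syk kinase (0.025 nM stock before addition) with 625 nM biotinylated peptide and 25 μM ATP (substrate-solution levels) in Tris pH 7.5, MgCl2, DTT; 1 h at 30 °C on streptavidin plates. Phosphotyrosine detected by HRP anti-pTyr antibody, TMB, A450; IC50 by non-linear regression.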
row,IC50,Compound
1,50 to 500 nM,"N#Cc1ccnc(Nc2cc(C3CC3)cc(-c3ccc4nc([C@H]5CC[C@H](O)CC5)[nH]c4c3)n2)c1 [Example 175, 2-({4-cyclopropyl-6-[2-(trans-4-hydroxycyclohexyl)-1H-benzimidazol-6-yl]pyridin-2-yl}amino)pyridine-4-carbonitrile hydrochloride]"
2,5 to 50 nM,"N#Cc1ccnc(Nc2cc(C3CC3)cc(-c3ccc4ncn([C@H]5CC[C@H](C#N)CC5)c4c3)n2)c1 [Example 176, 2-({6-[1-(trans-4-cyanocyclohexyl)-1H-benzimidazol-6-yl]-4-cyclopropylpyridin-2-yl}amino)pyridine-4-carbonitrile hydrochloride]"
3,5 to 50 nM,"N#Cc1ccnc(Nc2cc(C3CC3)cc(-c3cnc(N4CCS(=O)(=O)CC4)c(F)c3)n2)c1 [Example 177, 2-{[4-cyclopropyl-6′-(1,1-dioxidethiomorpholin-4-yl)-5′-fluoro-2,3′-bipyridin-6-yl]amino}pyridine-4-carbonitrile hydrochloride]"
